In ChEMBL document CHEMBL5696442, “Discovery of type II inhibitors of TGFβ-activated kinase 1 (TAK1) and mitogen-activated protein kinase kinase kinase kinase 2 (MAP4K2)” (J Med Chem, 2015) one finds inhibition and residual activity data, which are given here for three molecules.

Experiment [1] addresses Ribosomal protein S6 kinase alpha-5 (Homo sapiens) (UniProt O75582). As to the kind of experiment: Inhibition of N-terminal RPS6KA5 kinase domain 1 (unknown origin) at 1 uM by Ambit Kinomescan binding assay relative to control.
The target of experiment [2] is Cyclin-dependent kinase 1 (Homo sapiens) (UniProt P06493). As to the kind of experiment: Inhibition of CDC2 Lys2 labeling site harbouring DLKPQNLLIDDKGTIK in human A-375 cells at 0.05 uM by KiNativ Profiling analysis relative to control. In kind it is cell-based.
Experiment [3] concerns the target Serine/threonine-protein kinase 4 (Homo sapiens) (UniProt Q13043). As to the kind of experiment: Inhibition of MST1 Lys2 labeling site harbouring DIKAGNILLNTEGHAK in human A-375 cells at 0.05 uM by KiNativ Profiling analysis relative to control.
For experiment [4], the target named is T1, Phosphatidylinositol 5-phosphate 4-kinase type-2 beta (Homo sapiens) (UniProt P78356).
T1 sequence (whole entry): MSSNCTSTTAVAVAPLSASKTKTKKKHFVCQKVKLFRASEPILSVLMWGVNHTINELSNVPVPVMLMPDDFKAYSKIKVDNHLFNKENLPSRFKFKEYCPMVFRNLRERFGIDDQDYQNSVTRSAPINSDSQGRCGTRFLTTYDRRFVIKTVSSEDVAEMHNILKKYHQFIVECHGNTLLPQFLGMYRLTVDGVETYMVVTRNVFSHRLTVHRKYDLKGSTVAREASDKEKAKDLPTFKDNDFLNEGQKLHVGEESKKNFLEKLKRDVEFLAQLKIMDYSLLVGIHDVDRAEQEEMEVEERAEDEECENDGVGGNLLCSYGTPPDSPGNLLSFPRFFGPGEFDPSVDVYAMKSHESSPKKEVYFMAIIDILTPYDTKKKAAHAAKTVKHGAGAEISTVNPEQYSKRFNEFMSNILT
As to the kind of experiment: Inhibition of PIP5K2B (unknown origin) at 1 uM by Ambit Kinomescan binding assay relative to control; values are per cent of control.

The target in experiment [5] is T2, Serine/threonine-protein kinase D3 (Homo sapiens) (UniProt O94806).
T2 sequence (whole entry): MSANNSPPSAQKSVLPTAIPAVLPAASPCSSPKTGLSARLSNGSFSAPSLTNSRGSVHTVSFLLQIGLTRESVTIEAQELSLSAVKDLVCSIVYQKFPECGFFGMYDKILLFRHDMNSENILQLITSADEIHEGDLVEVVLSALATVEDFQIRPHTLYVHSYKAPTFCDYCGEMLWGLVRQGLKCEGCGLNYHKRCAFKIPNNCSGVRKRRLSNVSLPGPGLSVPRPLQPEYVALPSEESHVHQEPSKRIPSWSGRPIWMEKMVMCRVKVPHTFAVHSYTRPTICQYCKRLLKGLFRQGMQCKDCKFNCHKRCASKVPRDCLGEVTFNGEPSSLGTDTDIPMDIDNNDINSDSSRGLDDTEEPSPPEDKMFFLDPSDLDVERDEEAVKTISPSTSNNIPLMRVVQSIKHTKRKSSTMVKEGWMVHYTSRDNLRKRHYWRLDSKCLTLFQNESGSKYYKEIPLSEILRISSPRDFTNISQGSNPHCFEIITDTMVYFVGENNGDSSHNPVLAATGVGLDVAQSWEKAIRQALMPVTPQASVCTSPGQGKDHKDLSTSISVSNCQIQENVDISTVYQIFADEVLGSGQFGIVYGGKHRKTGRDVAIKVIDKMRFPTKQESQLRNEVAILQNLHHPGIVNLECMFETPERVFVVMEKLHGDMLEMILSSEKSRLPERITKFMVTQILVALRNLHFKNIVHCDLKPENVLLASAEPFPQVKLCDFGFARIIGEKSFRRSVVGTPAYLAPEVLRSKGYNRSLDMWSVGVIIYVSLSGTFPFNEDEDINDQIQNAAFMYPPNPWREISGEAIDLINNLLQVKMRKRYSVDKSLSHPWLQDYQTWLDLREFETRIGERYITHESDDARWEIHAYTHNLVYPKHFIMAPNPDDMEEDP
The experiment can be described thus: Inhibition of PKD3 Lys2 labeling site in human A-375 cells at 0.5 uM by KiNativ Profiling analysis relative to control. It counts as cell-based.

In experiment [6] the target is Receptor tyrosine-protein kinase erbB-3 (Homo sapiens) (UniProt P21860). The experiment can be described thus: Inhibition of HER3/ErbB3 ACT labeling site in human A-375 cells at 5 uM by KiNativ Profiling analysis relative to control. In kind it is cell-based.
Experiment [7] has as its target Tyrosine-protein kinase Lyn (Homo sapiens, UniProt P07948). As to the kind of experiment: Inhibition of LYN Lys1 labeling site in human A-375 cells at 0.05 uM by KiNativ Profiling analysis relative to control. It counts as cell-based.
The target in experiment [8] is Death-associated protein kinase 2 (Homo sapiens) (UniProt Q9UIK4). The experiment can be described thus: Inhibition of DAPK2 (unknown origin) at 10 uM by Ambit Kinomescan binding assay.
Chain of Death-associated protein kinase 2 (Homo sapiens) (Q9UIK4 whole entry, looked up): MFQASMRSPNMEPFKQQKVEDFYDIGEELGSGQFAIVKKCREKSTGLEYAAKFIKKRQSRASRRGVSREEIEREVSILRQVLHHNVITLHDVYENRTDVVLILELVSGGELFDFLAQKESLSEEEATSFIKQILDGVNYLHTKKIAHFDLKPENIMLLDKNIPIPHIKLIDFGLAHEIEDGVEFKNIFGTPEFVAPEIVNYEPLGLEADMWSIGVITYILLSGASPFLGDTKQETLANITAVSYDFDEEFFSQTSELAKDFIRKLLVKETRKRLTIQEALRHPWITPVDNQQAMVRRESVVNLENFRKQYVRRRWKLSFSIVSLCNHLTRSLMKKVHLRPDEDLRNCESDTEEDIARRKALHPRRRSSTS
Another experiment concerns 293-IL-1R. The experiment can be described thus: Inhibition of IL-1alpha induced p38 phosphorylation level in human 293-IL-1R cells preincubated for 1 hr followed by IL-1 alpha stimulation and measured after 30 mins by Western blot analysis. In kind it is functional, cell-based. Conditions: dose 0.01-10 µM. For orientation: In western blotting, separated proteins are transferred to a membrane and probed.

Experiment [9] concerns the target T3, Scaffold protein ILK (Homo sapiens) (UniProt Q13418).
T3 sequence (whole entry): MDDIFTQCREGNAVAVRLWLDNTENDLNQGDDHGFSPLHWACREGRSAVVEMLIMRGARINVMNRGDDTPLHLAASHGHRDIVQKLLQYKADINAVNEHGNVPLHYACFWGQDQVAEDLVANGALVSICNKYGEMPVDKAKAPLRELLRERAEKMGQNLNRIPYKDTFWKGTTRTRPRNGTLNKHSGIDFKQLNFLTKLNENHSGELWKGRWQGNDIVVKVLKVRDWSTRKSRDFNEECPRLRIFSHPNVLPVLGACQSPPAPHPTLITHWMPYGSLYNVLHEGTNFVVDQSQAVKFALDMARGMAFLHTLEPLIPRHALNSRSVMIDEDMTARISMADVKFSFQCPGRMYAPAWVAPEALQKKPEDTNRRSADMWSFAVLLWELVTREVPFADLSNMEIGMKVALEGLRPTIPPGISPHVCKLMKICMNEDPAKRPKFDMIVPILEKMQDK
The experiment can be described thus: Inhibition of ILK Protein Kinase Domain in human A-375 cells at 0.5 uM by KiNativ Profiling analysis relative to control. In kind it is cell-based.

Experiment [10] addresses Tyrosine-protein kinase CSK (Homo sapiens, UniProt P41240). The experiment can be described thus: Inhibition of CSK (unknown origin) at 10 uM by Ambit Kinomescan binding assay relative to control.
In experiment [11] the target is Mitogen-activated protein kinase kinase kinase 4 (Homo sapiens) (UniProt Q9Y6R4). The experiment can be described thus: Inhibition of MAP3K4 Lys2 labeling site in human Huh-7 cells at 1 uM by KiNativ Profiling analysis relative to control. In kind it is cell-based.
Chain of Mitogen-activated protein kinase kinase kinase 4 (Homo sapiens) (Q9Y6R4 whole entry): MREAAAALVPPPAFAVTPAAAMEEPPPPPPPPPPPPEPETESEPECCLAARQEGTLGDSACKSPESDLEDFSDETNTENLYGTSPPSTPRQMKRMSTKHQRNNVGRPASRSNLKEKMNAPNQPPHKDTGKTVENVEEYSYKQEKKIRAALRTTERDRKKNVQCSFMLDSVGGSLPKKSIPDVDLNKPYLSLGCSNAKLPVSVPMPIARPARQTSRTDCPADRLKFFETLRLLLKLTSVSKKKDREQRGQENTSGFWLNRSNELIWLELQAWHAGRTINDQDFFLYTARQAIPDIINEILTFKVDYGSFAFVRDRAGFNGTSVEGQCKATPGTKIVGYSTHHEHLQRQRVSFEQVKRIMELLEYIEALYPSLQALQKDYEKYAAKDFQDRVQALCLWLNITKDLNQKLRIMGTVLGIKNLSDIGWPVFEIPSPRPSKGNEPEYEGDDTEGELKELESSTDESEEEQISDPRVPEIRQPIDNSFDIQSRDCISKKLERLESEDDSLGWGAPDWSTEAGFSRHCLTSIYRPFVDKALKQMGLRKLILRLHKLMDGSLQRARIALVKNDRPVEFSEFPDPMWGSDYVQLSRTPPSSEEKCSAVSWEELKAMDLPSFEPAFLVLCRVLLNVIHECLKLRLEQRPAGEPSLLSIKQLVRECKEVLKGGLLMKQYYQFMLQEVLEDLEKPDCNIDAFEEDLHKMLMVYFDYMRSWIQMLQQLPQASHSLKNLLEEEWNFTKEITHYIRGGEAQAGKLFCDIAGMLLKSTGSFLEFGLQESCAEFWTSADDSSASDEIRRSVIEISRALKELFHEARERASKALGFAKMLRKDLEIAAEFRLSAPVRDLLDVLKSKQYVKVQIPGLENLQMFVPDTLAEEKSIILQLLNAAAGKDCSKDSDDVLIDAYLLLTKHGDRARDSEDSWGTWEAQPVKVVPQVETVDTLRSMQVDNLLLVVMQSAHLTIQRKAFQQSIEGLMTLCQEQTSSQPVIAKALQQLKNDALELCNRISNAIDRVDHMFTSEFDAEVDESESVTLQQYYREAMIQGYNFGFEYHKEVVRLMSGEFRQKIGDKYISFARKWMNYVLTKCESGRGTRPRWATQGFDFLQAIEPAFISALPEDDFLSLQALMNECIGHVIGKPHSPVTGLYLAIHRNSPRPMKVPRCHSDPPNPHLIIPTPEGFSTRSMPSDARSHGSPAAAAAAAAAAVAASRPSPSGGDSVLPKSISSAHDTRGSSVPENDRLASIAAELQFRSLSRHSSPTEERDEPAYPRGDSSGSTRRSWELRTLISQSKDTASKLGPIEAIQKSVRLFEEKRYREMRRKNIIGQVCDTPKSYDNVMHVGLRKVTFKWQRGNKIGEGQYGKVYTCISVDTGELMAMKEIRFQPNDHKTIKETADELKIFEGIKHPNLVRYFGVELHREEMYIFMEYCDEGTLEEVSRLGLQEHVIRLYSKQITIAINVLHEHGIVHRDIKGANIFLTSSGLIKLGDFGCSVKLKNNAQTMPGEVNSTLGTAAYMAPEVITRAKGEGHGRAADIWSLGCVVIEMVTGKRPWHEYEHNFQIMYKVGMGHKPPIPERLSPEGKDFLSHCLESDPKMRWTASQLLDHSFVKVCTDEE
The target of experiment [12] is Putative phosphatidylinositol 4-kinase alpha-like protein P2 (Homo sapiens) (UniProt A4QPH2). The experiment can be described thus: Inhibition of PI4KAP2 ATP labeling site in human Huh-7 cells at 1 uM by KiNativ Profiling analysis relative to control. In kind it is cell-based.
Chain of Putative phosphatidylinositol 4-kinase alpha-like protein P2 (Homo sapiens) (A4QPH2 whole entry): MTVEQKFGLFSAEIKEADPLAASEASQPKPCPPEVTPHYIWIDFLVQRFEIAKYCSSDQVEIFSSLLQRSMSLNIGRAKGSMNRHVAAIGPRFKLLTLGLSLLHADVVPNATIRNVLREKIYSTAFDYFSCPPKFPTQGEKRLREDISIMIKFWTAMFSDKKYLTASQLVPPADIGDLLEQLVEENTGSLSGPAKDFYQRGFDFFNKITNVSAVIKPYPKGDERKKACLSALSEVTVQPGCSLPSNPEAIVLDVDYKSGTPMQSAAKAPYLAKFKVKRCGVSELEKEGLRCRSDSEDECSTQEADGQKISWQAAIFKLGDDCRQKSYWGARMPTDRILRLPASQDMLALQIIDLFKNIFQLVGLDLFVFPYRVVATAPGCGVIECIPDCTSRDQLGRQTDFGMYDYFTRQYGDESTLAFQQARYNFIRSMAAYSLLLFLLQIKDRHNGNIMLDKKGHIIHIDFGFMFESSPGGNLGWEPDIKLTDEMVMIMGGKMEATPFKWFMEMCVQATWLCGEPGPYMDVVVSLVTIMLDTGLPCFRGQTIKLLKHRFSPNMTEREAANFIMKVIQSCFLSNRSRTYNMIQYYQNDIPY

Molecules are shown by their SMILES. Activity calls are given as the source filed them. No cut-off for these calls is given here.

Chain of Tyrosine-protein kinase Lyn (P07948 2-512 limits assumed): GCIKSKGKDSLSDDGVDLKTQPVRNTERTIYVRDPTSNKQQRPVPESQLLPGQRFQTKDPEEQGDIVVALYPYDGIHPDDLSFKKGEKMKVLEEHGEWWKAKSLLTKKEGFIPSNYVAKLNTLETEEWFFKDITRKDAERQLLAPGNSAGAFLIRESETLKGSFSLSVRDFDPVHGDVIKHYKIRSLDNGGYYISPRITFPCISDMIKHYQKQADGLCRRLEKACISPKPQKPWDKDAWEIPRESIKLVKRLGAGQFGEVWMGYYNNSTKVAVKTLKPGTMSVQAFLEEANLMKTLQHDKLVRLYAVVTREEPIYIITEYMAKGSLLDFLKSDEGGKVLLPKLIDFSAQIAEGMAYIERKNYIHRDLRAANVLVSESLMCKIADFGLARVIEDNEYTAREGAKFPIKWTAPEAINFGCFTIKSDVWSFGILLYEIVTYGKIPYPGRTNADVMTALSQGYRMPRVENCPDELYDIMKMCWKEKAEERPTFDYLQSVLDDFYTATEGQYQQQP
Chain of Ribosomal protein S6 kinase alpha-5 (Homo sapiens) (O75582 whole entry, looked up, the tested form may be a part): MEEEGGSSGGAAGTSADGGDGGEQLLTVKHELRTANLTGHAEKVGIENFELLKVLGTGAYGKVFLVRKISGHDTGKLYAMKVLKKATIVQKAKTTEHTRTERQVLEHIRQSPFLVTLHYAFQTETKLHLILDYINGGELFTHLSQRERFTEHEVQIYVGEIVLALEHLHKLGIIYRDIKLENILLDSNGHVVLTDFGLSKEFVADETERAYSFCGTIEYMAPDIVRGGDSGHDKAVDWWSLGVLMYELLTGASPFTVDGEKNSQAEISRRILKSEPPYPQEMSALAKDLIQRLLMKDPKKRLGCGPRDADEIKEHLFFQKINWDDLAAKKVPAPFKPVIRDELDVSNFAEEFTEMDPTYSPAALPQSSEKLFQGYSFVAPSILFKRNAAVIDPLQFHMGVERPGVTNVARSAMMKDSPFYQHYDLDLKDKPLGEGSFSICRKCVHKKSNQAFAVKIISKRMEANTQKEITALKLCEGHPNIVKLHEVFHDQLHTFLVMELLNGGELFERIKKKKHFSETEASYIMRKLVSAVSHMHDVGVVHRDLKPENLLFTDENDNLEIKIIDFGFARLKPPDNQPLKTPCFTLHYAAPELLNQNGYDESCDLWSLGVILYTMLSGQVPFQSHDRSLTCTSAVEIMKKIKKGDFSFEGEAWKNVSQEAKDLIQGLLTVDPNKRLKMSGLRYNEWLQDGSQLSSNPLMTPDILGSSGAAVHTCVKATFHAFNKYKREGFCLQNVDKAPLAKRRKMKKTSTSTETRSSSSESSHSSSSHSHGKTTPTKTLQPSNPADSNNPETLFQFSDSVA
Chain of Tyrosine-protein kinase CSK (P41240 2-450 limits assumed): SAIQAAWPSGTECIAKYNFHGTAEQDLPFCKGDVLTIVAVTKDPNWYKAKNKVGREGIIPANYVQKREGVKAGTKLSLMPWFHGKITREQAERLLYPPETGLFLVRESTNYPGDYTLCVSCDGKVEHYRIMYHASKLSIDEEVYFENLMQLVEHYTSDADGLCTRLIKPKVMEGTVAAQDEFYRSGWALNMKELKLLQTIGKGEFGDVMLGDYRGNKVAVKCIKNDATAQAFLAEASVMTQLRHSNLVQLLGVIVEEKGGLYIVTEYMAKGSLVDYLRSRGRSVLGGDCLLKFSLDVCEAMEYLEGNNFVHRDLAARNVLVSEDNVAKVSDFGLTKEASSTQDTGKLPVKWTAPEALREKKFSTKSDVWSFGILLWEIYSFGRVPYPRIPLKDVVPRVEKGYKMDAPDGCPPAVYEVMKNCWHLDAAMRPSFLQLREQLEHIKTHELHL
Chain of Serine/threonine-protein kinase 4 (Homo sapiens) (Q13043 whole entry, looked up): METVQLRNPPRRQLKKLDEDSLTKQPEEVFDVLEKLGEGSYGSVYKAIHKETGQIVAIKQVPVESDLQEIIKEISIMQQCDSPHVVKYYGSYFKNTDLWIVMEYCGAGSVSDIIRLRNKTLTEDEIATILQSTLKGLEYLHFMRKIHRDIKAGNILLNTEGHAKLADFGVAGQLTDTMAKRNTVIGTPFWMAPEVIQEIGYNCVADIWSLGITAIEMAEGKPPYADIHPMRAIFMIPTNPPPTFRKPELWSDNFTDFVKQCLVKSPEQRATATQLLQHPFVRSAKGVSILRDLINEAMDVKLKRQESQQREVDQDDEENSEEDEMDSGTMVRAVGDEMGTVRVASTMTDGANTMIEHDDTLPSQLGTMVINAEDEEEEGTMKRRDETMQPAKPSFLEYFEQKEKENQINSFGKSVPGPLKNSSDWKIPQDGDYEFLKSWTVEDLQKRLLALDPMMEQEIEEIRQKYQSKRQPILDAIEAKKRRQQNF

`CCN1CCN(Cc2ccc(NC(=O)c3ccc(C)c(/C=C/c4cnc5[nH]ccc5c4OC)c3)cc2C(F)(F)F)CC1`: the inhibition – broadly, the change of the read-out against control, counted positive when it falls – in [1] was 62%; in experiment [2], 2.1%; in experiment [3], -7%; in [5], -8.8%; in [6], -3.7%. For the same molecule, the residual activity (as a rule, the activity still measured, relative to the control) in [4] came to 12%.

Take `CCN1CCN(Cc2ccc(NC(=O)c3ccc(C)c(Oc4ccnc5[nH]ccc45)c3)cc2C(F)(F)F)CC1`: the inhibition in experiment [7] was 71.9%; in the experiment on 293-IL-1R it was “Dose-Dependent Effect”; in experiment [9], 1.9%; in experiment [10] it was 0.45%. Further, in experiment [8], the inhibition entry was “inactive”.

On to `CNc1cc(Oc2cc(C(=O)Nc3cc(N4CCN(C)CC4)cc(C(F)(F)F)c3)ccc2C)ncn1`, for which the inhibition in [11] is 77%; in [12], 29.8%.
